Results: the NIST ThermoML archive (doi:10.1016/j.jct.2005.10.002)
Several values for one entry are separate records, joined by “and”; a condition that tells them apart may be missing. Identical values can stand only once.

Conditions: Liquid; for mass density: 101.33 kPa

CCC(C)(O)CC [3-methyl-3-pentanol]
Conditions | mass density
278.15 K | 840.5 kg/m3 and 841 kg/m3
279.15 K | 839.7 kg/m3 and 840.2 kg/m3
280.15 K | 838.9 kg/m3 and 839.4 kg/m3
281.15 K | 838.1 kg/m3 and 838.5 kg/m3
282.15 K | 837.2 kg/m3 and 837.7 kg/m3
283.15 K | 836.4 kg/m3 and 836.8 kg/m3
284.15 K | 835.6 kg/m3 and 836 kg/m3
285.15 K | 834.8 kg/m3 and 835.2 kg/m3
286.15 K | 833.9 kg/m3 and 834.4 kg/m3
287.15 K | 833.5 kg/m3 and 833.1 kg/m3
288.15 K | 832.7 kg/m3 and 832.3 kg/m3
289.15 K | 831.9 kg/m3 and 831.4 kg/m3
290.15 K | 831 kg/m3 and 830.6 kg/m3
291.15 K | 830.1 kg/m3 and 829.7 kg/m3
292.15 K | 829.3 kg/m3 and 828.9 kg/m3
293.15 K | 828.5 kg/m3 and 828 kg/m3
294.15 K | 827.6 kg/m3 and 827.1 kg/m3
295.15 K | 826.7 kg/m3 and 826.3 kg/m3
296.15 K | 825.9 kg/m3 and 825.4 kg/m3
297.15 K | 825 kg/m3 and 824.5 kg/m3
298.15 K | 824.1 kg/m3 and 823.6 kg/m3
299.15 K | 823.2 kg/m3 and 822.8 kg/m3
300.15 K | 822.3 kg/m3 and 821.9 kg/m3
301.15 K | 821.5 kg/m3 and 821 kg/m3
302.15 K | 820.6 kg/m3 and 820.1 kg/m3
303.15 K | 819.7 kg/m3 and 819.2 kg/m3
304.15 K | 818.8 kg/m3 and 818.3 kg/m3
305.15 K | 817.9 kg/m3 and 817.4 kg/m3
306.15 K | 816.9 kg/m3 and 816.5 kg/m3
307.15 K | 816 kg/m3 and 815.5 kg/m3
308.15 K | 815.1 kg/m3 and 814.6 kg/m3
309.15 K | 814.2 kg/m3 and 813.7 kg/m3
310.15 K | 813.3 kg/m3 and 812.8 kg/m3
311.15 K | 812.3 kg/m3 and 811.8 kg/m3
312.15 K | 811.4 kg/m3 and 810.9 kg/m3
313.15 K | 810.5 kg/m3 and 810 kg/m3
314.15 K | 809.5 kg/m3 and 809 kg/m3
315.15 K | 808.6 kg/m3 and 808.1 kg/m3
316.15 K | 807.6 kg/m3 and 807.1 kg/m3
317.15 K | 806.7 kg/m3 and 806.2 kg/m3
318.15 K | 805.7 kg/m3 and 805.2 kg/m3
319.15 K | 804.8 kg/m3 and 804.3 kg/m3
320.15 K | 803.8 kg/m3 and 803.3 kg/m3
321.15 K | 802.8 kg/m3 and 802.3 kg/m3
322.15 K | 801.9 kg/m3 and 801.3 kg/m3
323.15 K | 800.9 kg/m3 and 800.4 kg/m3
324.15 K | 799.9 kg/m3 and 799.4 kg/m3
325.15 K | 798.9 kg/m3 and 798.4 kg/m3
326.15 K | 798 kg/m3 and 797.4 kg/m3
327.15 K | 797 kg/m3 and 796.4 kg/m3
328.15 K | 796 kg/m3 and 795.4 kg/m3
329.15 K | 795 kg/m3 and 794.4 kg/m3
330.15 K | 794 kg/m3 and 793.4 kg/m3
331.15 K | 793 kg/m3 and 792.4 kg/m3
332.15 K | 792 kg/m3 and 791.4 kg/m3
333.15 K | 791 kg/m3 and 790.4 kg/m3
334.15 K | 789.9 kg/m3 and 789.4 kg/m3
335.15 K | 788.9 kg/m3 and 788.4 kg/m3
336.15 K | 787.9 kg/m3 and 787.4 kg/m3
337.15 K | 786.9 kg/m3 and 786.4 kg/m3
338.15 K | 785.9 kg/m3 and 785.3 kg/m3
339.15 K | 784.3 kg/m3
340.15 K | 783.3 kg/m3
341.15 K | 782.3 kg/m3
342.15 K | 781.2 kg/m3
343.15 K | 780.2 kg/m3
344.15 K | 779.1 kg/m3
345.15 K | 778.1 kg/m3
346.15 K | 777.1 kg/m3
347.15 K | 776 kg/m3
348.15 K | 775 kg/m3
349.15 K | 773.9 kg/m3
350.15 K | 772.9 kg/m3
351.15 K | 771.8 kg/m3
352.15 K | 770.7 kg/m3
353.15 K | 769.7 kg/m3
354.15 K | 768.6 kg/m3
355.15 K | 767.6 kg/m3
356.15 K | 766.5 kg/m3
357.15 K | 765.4 kg/m3
358.15 K | 764.4 kg/m3
359.15 K | 763.3 kg/m3
360.15 K | 762.2 kg/m3
361.15 K | 761.1 kg/m3
362.15 K | 760.1 kg/m3
363.15 K | 759 kg/m3
364.15 K | 757.9 kg/m3
365.15 K | 756.8 kg/m3
366.15 K | 755.7 kg/m3
367.15 K | 754.6 kg/m3
368.15 K | 753.5 kg/m3

speed of sound [m/s]
Conditions | 303.15 K | 313.15 K | 323.15 K | 333.15 K | 343.15 K | 353.15 K | 363.15 K | 373.15 K
100 kPa | 1230.7 | 1192.7 | 1154.4 | 1115.7 | 1077.3 | 1037.7 | 998.2 | 957.7
10000 kPa | 1290.1 | 1254.9 | 1219.2 | 1183.6 | 1148 | 1111.6 | 1076.2 | 1039.5
20000 kPa | 1344.9 | 1311.8 | 1278.7 | 1245 | 1211.1 | 1177.7 | 1144.6 | 1110.9
30000 kPa | 1396.1 | 1365 | 1332.4 | 1300.4 | 1268.5 | 1236.9 | 1205.4 | 1174
40000 kPa | 1443.3 | 1412.6 | 1382.1 | 1351.9 | 1321.7 | 1291.4 | 1261.4 | 1231.1
50000 kPa | 1487.1 | 1457.9 | 1428.9 | 1399.7 | 1370.5 | 1342.1 | 1312.6 | 1283.7
60000 kPa | 1529.7 | 1500.4 | 1472.8 | 1444.4 | 1416 | 1387.8 | 1359.8 | 1332
70000 kPa | 1568.8 | 1540.7 | 1513.6 | 1486.1 | 1458.4 | 1431.2 | 1404.8 | 1377.5
80000 kPa | 1606.2 | 1578.9 | 1552.8 | 1525.6 | 1499.4 | 1472.7 | 1446.9 | 1420.3
90000 kPa | 1641.7 | 1615 | 1589.9 | 1563.8 | 1537.9 | 1511.9 | 1486.5 | 1461.1
100000 kPa | 1675.9 | 1650 | 1624.9 | 1599.9 | 1574.6 | 1549.3 | 1524.4 | 1499.3

CCC(O)(CC)CC [3-ethyl-3-pentanol]
speed of sound [m/s]
Conditions | 303.15 K | 313.15 K | 323.15 K | 333.15 K | 343.15 K | 353.15 K | 363.15 K | 373.15 K
100 kPa | 1269.7 | 1229.3 | 1189.8 | 1152.4 | 1113 | 1073.7 | 1034.6 | 994.7
10000 kPa | 1326.5 | 1289.3 | 1255.2 | 1217.3 | 1180.3 | 1144 | 1107.3 | 1072
20000 kPa | 1379.5 | 1346 | 1311.9 | 1277.4 | 1241.1 | 1207.5 | 1172.7 | 1139.6
30000 kPa | 1429.1 | 1393.8 | 1364.3 | 1330.3 | 1297.2 | 1264.4 | 1232.5 | 1200.6
40000 kPa | 1474.3 | 1440.8 | 1412.8 | 1379.9 | 1349.5 | 1317.4 | 1286.4 | 1256.3
50000 kPa | 1515.9 | 1484.5 | 1459 | 1426.5 | 1396 | 1366 | 1336.4 | 1307.4
60000 kPa | 1556.7 | 1526 | 1500.7 | 1470.6 | 1441.1 | 1411.1 | 1383.4 | 1354.2
70000 kPa | 1594.7 | 1564.6 | 1541 | 1511 | 1482.7 | 1454.8 | 1427.4 | 1400
80000 kPa | 1632.3 | 1602.2 | 1580.4 | 1550.1 | 1522 | 1494.6 | 1467.9 | 1440.9
90000 kPa | 1667.3 | 1638.3 | 1616.9 | 1587.4 | 1560.4 | 1533.6 | 1507.1 | 1481.4
100000 kPa | 1700.2 | 1672.4 | 1651.3 | 1622.8 | 1596.4 | 1570.4 | 1544.3 | 1519.4

CCC(O)CC [3-pentanol]
speed of sound [m/s]
Conditions | 303.15 K | 313.15 K | 323.15 K | 333.15 K | 343.15 K | 353.15 K | 363.15 K | 373.15 K
100 kPa | 1234.7 | 1194.7 | 1155.2 | 1115.9 | 1076.8 | 1036.7 | 997.3 | 957.2
10000 kPa | 1294 | 1257 | 1219.2 | 1182.2 | 1146.9 | 1110.4 | 1075.3 | 1038.9
20000 kPa | 1348.2 | 1313 | 1277.9 | 1243.1 | 1209.7 | 1176.2 | 1143.2 | 1109.6
30000 kPa | 1397.7 | 1364.7 | 1331 | 1298.2 | 1266.6 | 1234.1 | 1203.5 | 1171.5
40000 kPa | 1443.6 | 1411.9 | 1380.2 | 1348.6 | 1318.2 | 1287.8 | 1258.2 | 1228.3
50000 kPa | 1486.9 | 1456 | 1425.8 | 1395.9 | 1366.4 | 1337.3 | 1308.3 | 1280.1
60000 kPa | 1526 | 1498.1 | 1468.5 | 1439.4 | 1411.1 | 1383.1 | 1355.1 | 1328.2
70000 kPa | 1564.7 | 1537.4 | 1508.9 | 1480.7 | 1453.1 | 1425.8 | 1399.6 | 1373.1
80000 kPa | 1600.5 | 1574.5 | 1547.2 | 1519.8 | 1492.9 | 1466.6 | 1440.8 | 1415
90000 kPa | 1636.4 | 1610.2 | 1583.6 | 1556.9 | 1530.7 | 1505 | 1479.7 | 1454.6
100000 kPa | 1668.2 | 1644.1 | 1618.6 | 1592.2 | 1566.6 | 1541.4 | 1516.9 | 1492.5
